Type in all cases: biochemical
The target in experiment [1] is T1, recombinant 15-LOX enzyme (Homo sapiens, UniProt P16050).
T1 sequence (P16050 1-662): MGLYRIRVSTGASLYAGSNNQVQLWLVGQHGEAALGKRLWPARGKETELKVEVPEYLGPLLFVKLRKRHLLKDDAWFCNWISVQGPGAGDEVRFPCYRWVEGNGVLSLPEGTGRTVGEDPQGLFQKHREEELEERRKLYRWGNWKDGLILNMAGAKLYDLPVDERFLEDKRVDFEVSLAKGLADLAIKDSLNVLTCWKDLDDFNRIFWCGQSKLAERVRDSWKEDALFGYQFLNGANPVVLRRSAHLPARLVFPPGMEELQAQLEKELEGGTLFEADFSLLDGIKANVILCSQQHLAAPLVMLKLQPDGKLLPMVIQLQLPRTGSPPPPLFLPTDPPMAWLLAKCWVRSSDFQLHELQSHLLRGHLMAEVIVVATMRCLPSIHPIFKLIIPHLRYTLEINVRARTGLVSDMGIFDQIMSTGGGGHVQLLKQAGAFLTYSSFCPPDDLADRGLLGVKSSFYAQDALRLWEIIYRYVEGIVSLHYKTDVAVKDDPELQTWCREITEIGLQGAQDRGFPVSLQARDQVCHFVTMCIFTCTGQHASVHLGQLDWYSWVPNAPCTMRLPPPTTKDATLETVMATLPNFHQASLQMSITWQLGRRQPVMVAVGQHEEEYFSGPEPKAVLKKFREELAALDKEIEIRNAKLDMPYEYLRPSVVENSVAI
The experiment in a line: 15-LOX fluorescent assay. The note with it: several values in one cell = repeat determinations; read-out: IC50 (μM) values for in vitro lipoxygenase inhibition, 15-LOX. The essentials:
(§1)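 Compounds pre-incubated 15 min with 100 nM 12-LOX or 50 nM 15-LOX in 50 mM Tris pH 7.5, 0.05% Tween-20; reaction started with 20 μM AA/LA plus 1 μM DHR123.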

Experiment [2] addresses T2, recombinant 12-LOX enzyme (Homo sapiens, UniProt P18054).
T2 sequence (P18054 1-663): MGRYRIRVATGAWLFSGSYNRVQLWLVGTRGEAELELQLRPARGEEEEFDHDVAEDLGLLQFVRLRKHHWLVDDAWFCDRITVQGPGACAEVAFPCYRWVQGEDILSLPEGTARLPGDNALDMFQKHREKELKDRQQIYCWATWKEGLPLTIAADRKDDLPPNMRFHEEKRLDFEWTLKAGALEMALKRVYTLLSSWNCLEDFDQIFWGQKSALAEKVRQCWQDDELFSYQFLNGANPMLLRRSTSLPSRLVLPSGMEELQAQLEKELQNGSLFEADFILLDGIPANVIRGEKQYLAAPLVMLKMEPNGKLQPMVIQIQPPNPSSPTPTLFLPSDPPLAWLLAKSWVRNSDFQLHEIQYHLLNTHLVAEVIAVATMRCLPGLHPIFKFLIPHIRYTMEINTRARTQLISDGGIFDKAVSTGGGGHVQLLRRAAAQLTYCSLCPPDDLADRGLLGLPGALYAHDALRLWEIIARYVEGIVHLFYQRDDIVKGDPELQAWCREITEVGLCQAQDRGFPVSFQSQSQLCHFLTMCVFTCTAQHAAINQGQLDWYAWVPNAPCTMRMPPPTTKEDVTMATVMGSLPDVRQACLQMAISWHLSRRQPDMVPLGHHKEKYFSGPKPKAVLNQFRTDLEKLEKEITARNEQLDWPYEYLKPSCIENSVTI
The experiment in a line: 12-LOX fluorescent assay. The note with it: several values in one cell = repeat determinations; read-out: IC50 (μM) values for in vitro lipoxygenase inhibition, 12-LOX. In short, it runs like this: as §1

The target in the next experiment is T3, recombinant 5-LOX (Homo sapiens, UniProt P09917).
T3 sequence (P09917 1-674): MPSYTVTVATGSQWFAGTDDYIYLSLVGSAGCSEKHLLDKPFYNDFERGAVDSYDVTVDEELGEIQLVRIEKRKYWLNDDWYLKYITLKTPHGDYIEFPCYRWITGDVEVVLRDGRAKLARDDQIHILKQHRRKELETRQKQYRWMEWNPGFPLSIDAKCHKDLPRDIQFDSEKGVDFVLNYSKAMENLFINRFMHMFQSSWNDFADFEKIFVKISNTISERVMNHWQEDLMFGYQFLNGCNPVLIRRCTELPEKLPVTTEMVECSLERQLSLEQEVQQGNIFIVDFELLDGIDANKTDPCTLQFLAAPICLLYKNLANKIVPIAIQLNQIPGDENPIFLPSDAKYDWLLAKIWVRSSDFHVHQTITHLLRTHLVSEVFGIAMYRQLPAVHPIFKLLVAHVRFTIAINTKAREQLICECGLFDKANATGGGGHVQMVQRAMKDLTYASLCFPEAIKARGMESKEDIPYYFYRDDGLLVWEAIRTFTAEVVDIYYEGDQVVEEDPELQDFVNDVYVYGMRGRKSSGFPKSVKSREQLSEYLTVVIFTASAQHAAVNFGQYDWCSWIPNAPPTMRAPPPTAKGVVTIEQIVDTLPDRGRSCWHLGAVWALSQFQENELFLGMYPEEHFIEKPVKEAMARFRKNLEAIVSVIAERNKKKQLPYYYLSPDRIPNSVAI
Kind of experiment: 5-LOX fluorescent assay. The conditions noted are these: several values in one cell = repeat determinations; read-out: IC50 (μM) values for in vitro lipoxygenase inhibition, 5-LOX. In short, it runs like this:
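Lysate containing recombinant 5-LOX was pre-incubated 15 min with compounds in 50 mM Tris pH 7.5, 0.1 mM EDTA, 0.3 mM CaCl2. The reaction was started with 20 μM arachidonic acid, 100 μM ATP and 1 μM DHR123.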

Values joined by “and” are separate entries in the source; they are usually repeats but may differ in a detail not shown here. Identical values can stand only once.

Usually IC50 stands for the point on the concentration scale where inhibition reaches its midpoint.

For `CN(C)CC1(COc2c3[nH]c4ccc(F)cc4c3c(F)c3[nH]c4ccc(F)cc4c23)COC1` [SS20308-0185-01, N,N-dimethyl-1-(3-((2,8,12-trifluoro-5,11-dihydroindolo[3,2-b]carbazol-6-yloxy)methyl)oxetan-3-yl)methanamine], the figures for the IC50 (in experiment [1]; in experiment [2]; on recombinant 5-LOX) were 0.05 µM, 0.1 µM and 0.08 µM, respectively.
Consider `Fc1ccc2[nH]c3cc(-c4ccccc4)c(NCC4(Cn5cncn5)COC4)cc3c2c1` [SS20308-0186-01, N-((3-((1H-1,2,4-triazol-1-yl)methyl)oxetan-3-yl)methyl)-6-fluoro-2-phenyl-9H-carbazol-3-amine], for which the IC50 in experiment [1] was 0.05 µM and 0.02 µM; in experiment [2], 0.03 µM and 0.01 µM; at recombinant 5-LOX it was 0.04 µM and 0.01 µM.
Take `Fc1ccc2[nH]c3cc4c(c(F)c3c2c1)CCN4CCn1cncn1` [SS20308-0207-01, 1-(2-(1H-1,2,4-triazol-1-yl)ethyl)-4,6-difluoro-1,2,3,9-tetrahydropyrrolo[2,3-b]carbazole]: the IC50 in experiment [1] is 1.15 µM; in experiment [2] it was 0.1 µM; at recombinant 5-LOX it was 0.59 µM.
The corresponding values for `Fc1ccc2[nH]c3cc4c(cc3c2c1)CCN4CCn1cncn1` [SS20308-0208-01, 1-(2-(1H-1,2,4-triazol-1-yl)ethyl)-6-fluoro-1,2,3,9-tetrahydropyrrolo[2,3-b]carbazole] are 0.18 µM, 0.01 µM and 0.2 µM.
The corresponding values for `CC1(C)CN(CCn2cncn2)c2cc3[nH]c4ccccc4c3cc21` [SS20308-0209-01, 1-(2-(1H-1,2,4-triazol-1-yl)ethyl)-3,3-dimethyl-1,2,3,9-tetrahydropyrrolo[2,3-b] carbazole] are 1.12 µM, 0.03 µM and 0.92 µM.
The corresponding values for `CN(C)C(=O)CC(c1ccccc1)c1ccc2[nH]c3ccccc3c2c1` (stereo not drawn) [SS20308-0222-01, 3-(9H-carbazol-3-yl)-N,N-dimethyl-3-phenylpropanamide] are 4.53 µM, 14 µM and 10.9 µM.
For `c1ccc2c(c1)CCc1ccc(NCCn3cncn3)cc1N2` [SS20308-0224-01, N-(2-(1H-1,2,4-triazol-1-yl)ethyl)-10,11-dihydro-5H-dibenzo[b,f]azepin-3-amine], the results for the IC50 (in experiment [1]; in experiment [2]; on recombinant 5-LOX) were 1.12 µM, 0.11 µM and 0.22 µM, respectively.
The corresponding values for `Cc1cc2[nH]c3ccc(F)cc3c2cc1NCC1(Cn2cncn2)COC1` [SS20308-0233-01, N-((3-((1H-1,2,4-triazol-1-yl)methyl)oxetan-3-yl)methyl)-6-fluoro-2-methyl-9H-carbazol-3-amine] are 0.2 µM, 0.03 µM and 0.19 µM.
The corresponding values for `Fc1cccc2c1[nH]c1cc3c(cc12)CCN3CCn1cncn1` [SS20308-0243-01, 1-(2-(1H-1,2,4-triazol-1-yl)ethyl)-8-fluoro-1,2,3,9-tetrahydropyrrolo[2,3-b]car bazole] are 1.13 µM, 0.03 µM and 0.2 µM.
For `Clc1cc2c(cc1NCCn1cncn1)Nc1ccccc1CC2` [SS20308-0251-01, N-(2-(1H-1,2,4-triazol-1-yl)ethyl)-2-chloro-10,11-dihydro-5H-dibenzo[b,f]azepin-3-amine], the IC50 was 0.75 µM and 0.73 µM in experiment [1]; 0.05 µM and 0.22 µM in experiment [2]; 0.45 µM and 0.56 µM on recombinant 5-LOX.
Turning to `CN(C)CCc1cc(Nc2cccc(Cl)c2)cc2c1[nH]c1ccccc12` [SS20308-0258-01, N-(3-chlorophenyl)-1-(2-(dimethylamino)ethyl)-9H-carbazol-3-amine], the IC50 in experiment [1] was 0.09 µM and 0.55 µM; in experiment [2], 0.16 µM; on recombinant 5-LOX it was 0.06 µM and 0.08 µM.
For the molecule `c1ccc2c(c1)CCc1cc(C3CC3)c(NCCn3cncn3)cc1N2` [SS20308-0269-01, N-(2-(1H-1,2,4-triazol-1-yl)ethyl)-2-cyclopropyl-10,11-dihydro-5H-dibenzo[b,f]azepin-3-amine], the results for the IC50 (in experiment [1]; in experiment [2]; at recombinant 5-LOX) were 0.55 µM, 0.11 µM and 0.55 µM, respectively.
Regarding `CN(C)CCCNc1ccc2c(c1)Nc1ccccc1CC2` [SS20308-0270-01, N^1-(10,11-dihydro-5H-dibenzo[b,f]azepin-3-yl)-N^3,N^3-dimethylpropane-1,3-diamine], the IC50 was 1.08 µM and 0.9 µM in experiment [1]; 0.1 µM in experiment [2]; 0.15 µM on recombinant 5-LOX.
As for `c1ccc2c(c1)CCc1cc(C3CCCCC3)c(NCCn3cncn3)cc1N2` [SS20308-0271-01, N-(2-(1H-1,2,4-triazol-1-yl)ethyl)-2-cyclohexyl-10,11-dihydro-5H-dibenzo[b,f]azepin-3-amine], the IC50 in experiment [1] was 0.28 µM and 0.32 µM; in experiment [2], 0.11 µM and 0.12 µM; on recombinant 5-LOX, 0.15 µM and 0.17 µM.
For the molecule `Clc1c(NCCn2cncn2)ccc2c1Nc1ccccc1CC2` [SS20308-0273-01, N-(2-(1H-1,2,4-triazol-1-yl)ethyl)-4-chloro-10,11-dihydro-5H-dibenzo [b,f]azepin-3-amine], the values for the IC50 (in experiment [1]; in experiment [2]; on recombinant 5-LOX) were 9.82 µM, 2.66 µM and 5.6 µM, respectively.
Turning to `c1ccc2c(c1)CCc1cc(NCCn3cncn3)ccc1N2` [SS20308-0276-01, N-(2-(1H-1,2,4-triazol-1-yl)ethyl)-10,11-dihydro-5H-dibenzo[b,f]azepin-2-amine], the IC50 was 0.28 µM and 0.1 µM in experiment [1]; 0.03 µM and 0.02 µM in experiment [2]; 0.13 µM and 0.06 µM at recombinant 5-LOX.
Turning to `CN(C)CCc1cc(Nc2ccc(F)cc2Cl)cc2c1[nH]c1ccccc12` [SS20308-0277-01, N-(2-chloro-4-fluorophenyl)-1-(2-(dimethylamino)ethyl)-9H-carbazol-3-amine], the IC50 was 0.57 µM in experiment [1], 0.04 µM in experiment [2] and 0.32 µM on recombinant 5-LOX.
`CN(C)CCc1cc(Nc2cccnc2)cc2c1[nH]c1ccccc12` [SS20308-0291-01, 1-(2-(dimethylamino)ethyl)-N-(pyridin-3-yl)-9H-carbazol-3-amine]: the IC50 was 0.02 µM and 0.16 µM in experiment [1]; 0.05 µM and 0.06 µM in experiment [2]; 0.06 µM and 0.12 µM on recombinant 5-LOX.
On to `Fc1ccc2[nH]c3cc(C(F)(F)F)c(NCC4(Cn5cncn5)COC4)cc3c2c1` [SS20308-0295-01, N-((3-((1H-1,2,4-triazol-1-yl)methyl)oxetan-3-yl)methyl)-6-fluoro-2-(trifluoromethyl)-9H-carbazol-3-amine], for which the IC50 came out at 0.49 µM in experiment [1], 0.22 µM in experiment [2] and 0.66 µM on recombinant 5-LOX.

Source of the values: US20230174485A1, “LIPOXYGENASE INHIBITORS” (SRI International, priority 2020, published 2023).
